Experiments:
TNF-α [1] = experiment: TNF-α inhibitory effect in PBMC-derived monocyte (ELISA); format: cell-based, human; conditions: PBMC-derived monocytes, 4 μM peptide 2 hrs; for TNF-α inhibiting effect compared to the control group treated with only LPS: LPS 10 ng/ml 2 hours; for TNF-α inhibiting effect compared to the group treated with LPS and estrogen: LPS 10 ng/ml, estrogen 20 nM
Description: PBMC (peripheral blood mononuclear cells) layer was separated from blood samples (50 ml) collected in healthy subjects using Biocoll Separating Solution (Biochrom AG, Berlin, Germany). The collected PBMC were enriched in RPMI 1640 medium containing 20% human serum for 30 mins, and then transferred to 100-mm polystyeren cell culture plate coated with human serum for incubation for 2 hrs at 37° C., 5% CO^2 incubator. Monocytes were detached from the bottom of the plate using cold PBS, and incubated to reach the number of 1×10^5 cell/well in 96-well plate with RPMI 1640 medium (supplemented with penicillin-streptomycin; 100 mg/ml, human serum; 20%) over night.
ELISA was performed to find out how the peptides of the PEP RIA series influence TNF-α level. PBMC-derived monocytes were incubated to reach the number of 1×10^5 cells per well in a 96-well plate and then treated with LPS (lipopolysaccharide; 10 ng/ml, Sigma) for 2 hours. To the monocytes that were washed three times with PBS, OPTI-MEM culture medium was added to induce cell starvation for an hour, 4 μM of the peptide was taken out and incubated for 2 hours. There were three negative control groups. The first group was not treated with anything. The second group that was treated with estrogen (in this experiment, estradiol was used as a kind of estrogen). The third group was treated with LPS (10 ng/ml) or with LPS (10 ng/ml) as well as estrogen (20 nM). PEP1 that was confirmed to have TNF-α inhibiting activity was used as a positive control to measure TNF-α inhibiting activity. After incubation, TNF-α was measured by following the ELISA kit manual (R&D, Minneapolis, Minn., USA). The details of quantification method can be found in Experiment 2.2 of Example 1.
Using the method stated above, Peptides with TNF-α inhibiting effect were screened. PBMC-derived monocytes were stimulated with LPS (10 ng/ml), which is endotoxin, for 2 hours and were induced to starve by adding OPTI-MEM for 1 hour. After that, 4 μM of 161 peptides were treated and incubated for 2 hrs. The amount of TNF-α in the cell culture medium was measured using ELISA, and the peptides with TNF-α inhibiting effect were screened by comparing to the negative and positive controls (FIG. 1 to FIG. 16).

TNF-α [2] = experiment: TNF-α level in THP1 cell line differentiated by PMA (ELISA); format: cell-based, human; conditions: THP-1 differentiated by PMA, 1 μM peptide 1 hour; for reduction of TNF-α level compared to control group treated only with LPS: LPS 10 ng/ml 2 hours; for reduction of expression level of TNF-α compared to group treated with LPS and estrogen: LPS 10 ng/ml
Description: Experiment was carried out using THP-1 cell line (American Type Culture Collection (ATCC), Manassas, Va., USA) which is human acute monocytic leukemia.
THP-1 cells were incubated to reach the number of 1×10^5 cells per well in a 96-well plate with RPMI 1640 medium for 24 hrs, followed by addition of […] of PMA (phorbol 12-myristate 13-acetate) for the differentiation into macrophage. After differentiation of THP-1 into macrophage by PMA for a day, LPS was treated for 2 hrs and washed off. Starvation for an hour and PEP1 treatment followed.
THP-1 cell differentiated by PMA was treated with LPS (lipopolysaccharide; 10 ng/ml, Sigma) for 2 hours, followed by 2 times washes with PBS. To the cells, OPTI-MEM culture medium was added to induce cell starvation for an hour, and 1 μM of 161 peptides was taken out and incubated for an hour. After incubation, TNF-α level was measured by using the ELISA kit and the peptides which reduce the TNF-α level were screened (FIG. 17 to FIG. 35).

Sequence	TNF-α inhibiting effect compared to the control group treated with only LPS (TNF-α [1])	reduction of TNF-α level compared to control group treated only with LPS (TNF-α [2])	reduction of expression level of TNF-α compared to group treated with LPS and estrogen (TNF-α [2])	TNF-α inhibiting effect compared to the group treated with LPS and estrogen (TNF-α [1])
AERLTSRVKALFSVL (listed as Homo sapiens) [SEQ ID NO: 9]	showed TNF-α inhibiting effect	appeared to reduce the TNF-α level	reduce the expression level of TNF-α	–
AQCPYGVLLKTHCPLRAAVT (listed as Homo sapiens) [SEQ ID NO: 68]	–	appeared to reduce the TNF-α level	–	–
CGPPLYQLGAATQARPPPHA (listed as Homo sapiens) [SEQ ID NO: 114]	–	appeared to reduce the TNF-α level	–	–
DEALGGTAFVQMPAHGLFPW (listed as Homo sapiens) [SEQ ID NO: 151]	–	appeared to reduce the TNF-α level	–	–
EDTDPRRLVQLLRQHSSPWQ (listed as Homo sapiens) [SEQ ID NO: 70]	–	appeared to reduce the TNF-α level	–	showed TNF-α inhibiting effect
FFLRVISDTASLCYSILKAK (listed as Homo sapiens) [SEQ ID NO: 157]	–	–	reduce the expression level of TNF-α	–
FHQQVWKNPTFFLRVISDTA (listed as Homo sapiens) [SEQ ID NO: 99]	–	–	–	showed TNF-α inhibiting effect
GASVLGLDDI (listed as Homo sapiens) [SEQ ID NO: 13]	–	appeared to reduce the TNF-α level	reduce the expression level of TNF-α	–
GLLGASVLG (listed as Homo sapiens) [SEQ ID NO: 29]	–	appeared to reduce the TNF-α level	reduce the expression level of TNF-α	showed TNF-α inhibiting effect
GTRHSHPSVGRQHHAGPPST (listed as Homo sapiens) [SEQ ID NO: 120]	–	–	–	showed TNF-α inhibiting effect
GVPLGLPSPGARRRGGSASR (GVPLGLPAPGARRRGGSASR; listed as Homo sapiens) [SEQ ID NO: 116]	showed TNF-α inhibiting effect	–	–	–
LFSVLNYERARRPGLLGASV (listed as Homo sapiens) [SEQ ID NO: 81]	–	–	–	showed TNF-α inhibiting effect
LGLDDIHRAWRTFVLRVRAQ (listed as Homo sapiens) [SEQ ID NO: 82]	–	–	–	showed TNF-α inhibiting effect
LKRVQLRELSEAEVRQ (listed as Homo sapiens) [SEQ ID NO: 47]	–	–	–	showed TNF-α inhibiting effect
LLGASVLGL (listed as Homo sapiens) [SEQ ID NO: 11]	showed TNF-α inhibiting effect	–	–	–
LLVTPHLTHAKTFLRTLVRG (listed as Homo sapiens) [SEQ ID NO: 149]	showed TNF-α inhibiting effect	appeared to reduce the TNF-α level	–	showed TNF-α inhibiting effect
MPRAPRCRAVRSLLRSHYRE (listed as Homo sapiens) [SEQ ID NO: 48]	–	–	–	showed TNF-α inhibiting effect

Sequence	TNF-α inhibiting effect compared to the control group treated with only LPS (TNF-α [1])	reduction of TNF-α level compared to control group treated only with LPS (TNF-α [2])	reduction of expression level of TNF-α compared to group treated with LPS and estrogen (TNF-α [2])	TNF-α inhibiting effect compared to the group treated with LPS and estrogen (TNF-α [1])
NKLFAGIRRDGLLLRLVDDF (listed as Homo sapiens) [SEQ ID NO: 148]	showed TNF-α inhibiting effect	appeared to reduce the TNF-α level	–	showed TNF-α inhibiting effect
NRGFKAGRNMRRKLFGVLRL (listed as Homo sapiens) [SEQ ID NO: 96]	showed TNF-α inhibiting effect	–	–	showed TNF-α inhibiting effect
QMPAHGLFPWCGLLLDTRTL (listed as Homo sapiens) [SEQ ID NO: 94]	–	appeared to reduce the TNF-α level	–	–
QWLCHQAFLLKLTRHRVTTV (QWLCHQAFLLKLTRHRVTYV; listed as Homo sapiens) [SEQ ID NO: 159]	–	–	reduce the expression level of TNF-α	–
RFHACVLQLPFHQQVWKNPT (listed as Homo sapiens) [SEQ ID NO: 156]	–	–	reduce the expression level of TNF-α	–
RFMCHHAVRIRGKSYVQCQG (listed as Homo sapiens) [SEQ ID NO: 146]	showed TNF-α inhibiting effect	appeared to reduce the TNF-α level	–	showed TNF-α inhibiting effect
RLPQRYWQMRPLFLELLGNH (listed as Homo sapiens) [SEQ ID NO: 67]	–	appeared to reduce the TNF-α level	–	–
RTFVLRVRAQDPPPE (listed as Homo sapiens) [SEQ ID NO: 7]	–	appeared to reduce the TNF-α level	reduce the expression level of TNF-α	–
RTRGPSDRGFCVVSPARPAE (listed as Homo sapiens) [SEQ ID NO: 61]	–	–	–	showed TNF-α inhibiting effect
SGPRRRLGCERAWMHSVREA (SGPRRRLGCERAWNHSVREA; listed as Homo sapiens) [SEQ ID NO: 115]	showed TNF-α inhibiting effect	–	–	–
SRPPRPWDTPCPPVYAETKH (listed as Homo sapiens) [SEQ ID NO: 121]	–	–	–	showed TNF-α inhibiting effect
SVLGLDDIH (listed as Homo sapiens) [SEQ ID NO: 30]	–	appeared to reduce the TNF-α level	reduce the expression level of TNF-α	–
SVLNYERARR (listed as Homo sapiens) [SEQ ID NO: 15]	–	appeared to reduce the TNF-α level	reduce the expression level of TNF-α	–
VLGLDDIHRA (listed as Homo sapiens) [SEQ ID NO: 12]	–	appeared to reduce the TNF-α level	reduce the expression level of TNF-α	–
WMPGTPRRLPRLPQRYWQMR (listed as Homo sapiens) [SEQ ID NO: 124]	showed TNF-α inhibiting effect	–	–	–
YERARRPGL (listed as Homo sapiens) [SEQ ID NO: 10]	–	appeared to reduce the TNF-α level	reduce the expression level of TNF-α	–

Reference: patent publication US11098294B2, “Anti-inflammatory peptides and composition comprising same” (GemVax & KAEL Co., Ltd., priority 2012, dated 2021)
